Measurements published in patent US20260216172A1, “COMPOUNDS AND METHOD FOR TREATING HIV INFECTION” (The United States of America, as represented by the …, priority 2023, published 2026).
pEC50: −log10 of the molar value. Like-named read-outs stand apart in the source and are kept apart here.

Experiments:
[1] = Cytotoxicity in PBMCs (XTT); assay type: cell-based; conditions: human, PHA-P stimulated PBMCs pooled from three donors; PBMC, HIV-192RW009, 7 days, XTT; read-out: TC50
Experimental: (§1) (b) Anti-HIV-1 Cytoprotection Assay in PBMCs: PHA-P stimulated PBMCs from three donors were pooled together and re-suspended in fresh tissue culture medium at 1×10^6 cells/ml and plated in the interior wells of a 96 well round bottom microplate at 50 μL/well. A 100 μL volume of 2× concentrations of compound-containing media were transferred to the round-bottom 96-well plate containing the cells in triplicate. Fifty microliters (50 μL) of HIV-1 at a pre-determined dilution was added. Each plate contained cell control wells and virus control wells in parallel with the experimental wells. After 7 days in culture, efficacy was evaluated by measuring the reverse transcriptase in the culture supernatants and the cells were stained with the tetrazolium dye XTT to evaluate cytotoxicity.
as §1, with “This Example illustrates anti-HIV cytoprotection provided by compounds” for “(b) Anti-HIV-1 Cytoprotection Assay”, “accordance with another aspect of the invention, namely in PBMCs.” for “PBMCs:”

HIV-192RW009 = test: Anti-HIV-1 cytoprotection assay in PBMCs (reverse transcriptase in supernatant); assay type: cell-based; conditions: Human immunodeficiency virus 1, 168 h; PBMC, HIV-192RW009, 7 days
Experimental: as §1

[2] = tested on: simian immunodeficiency virus (SIV); conditions: SAMT-247 in combination with ΔV1DNA-ALVAC/gp120/alum vaccine; Rahman et al., Nature Microbiology 8; cited from earlier work
[3] = Pharmacokinetic study in male CD-1 mice; assay type: in vivo; conditions: for AUC0-inf: 5 mg/kg
Experimental: Male CD-1 mice weighing between […] were dosed via orbital sinus injection and blood was collected via submandibular vein. IV dosing solutions were prepared in DMSO:PEG400:Saline (5:35:60, v/v/v) at 1 mg/mL concentration of the prodrug. Blood samples (50 μL each time point) were obtained via Culex at predetermined time points (0, 5, 15, 30, 60, 120, 240, 360, 480 and 1440 min) after dosing. Plasma was obtained by centrifugation within 30 minutes after collection and aliquots of dosing solutions were taken and analyzed at the same time with plasma samples using a validated LC-MS/MS method developed on a Shimadzu HPLC system interfaced to a Sciex QTRAP 5500 mass spectrometer. Eluents were gradient mixtures of water and acetonitrile with 0.10% formic acid. HPLC column was ACE 5 C8, 50×2.1 mm, […]. PK parameters of the analytes were obtained using Phoenix®, WinNonlin® software (version 8.1).
The study was performed in male CD-1 mice to assess pharmacokinetics (PK) of prodrug 17 and its metabolites 18 and 19.

HIV-1RF = test: Anti-HIV cytoprotection evaluation in CEM-SS cells (CPE inhibition, XTT); assay type: cell-based; conditions: Human immunodeficiency virus 1, 144 h, 6 days
Experimental: (§2) (a) Anti-HIV Cytoprotection Evaluation: Inhibition of virus-induced cytopathic effects (CPE) and cell viability following HIV replication in CEM-SS cells were measured by the use of XTT tetrazolium dye. CEM-SS cells (2.5×10^3 cells per well) were seeded in 96-well U-bottomed tissue culture plates in RPMI medium supplemented with 10% FBS, 2 mM L-glutamine, 100 U/ml penicillin and 100 μg/ml streptomycin. Serially diluted compounds (6 concentrations) and HIV-1RF diluted to a pre-determined titer to yield 85 to 95% cell killing at 6 days post-infection were be added to the plate. AZT was evaluated in parallel as a positive control. Following incubation at 37° C., 5% CO2 for six days, cell viability was measured by XTT staining. The optical density of the cell culture plate will be determined spectrophotometrically at 450 and 650 nm using Softmax Pro 4.6 software. Percent CPE reduction of the virus-infected wells and the percent cell viability of uninfected drug control wells was calculated to define the EC50, TC50 and therapeutic index (TI50) using Microsoft Excel Xlfit4.
as §2, with “Inhibition” for “(a) Anti-HIV Cytoprotection Evaluation: Inhibition”, “by” for “by the use of”, “wells were” for “wells was”

[4] = Cell viability of uninfected drug control wells, CEM-SS cells (XTT); assay type: cell-based; conditions: human, read-out: TC50
Experimental: as §2
as §2, with “Inhibition” for “(a) Anti-HIV Cytoprotection Evaluation: Inhibition”, “by” for “by the use of”, “wells were” for “wells was”

[5] = mouse, in vivo, single IV bolus 5 mg/kg of compound 17, male CD-1 mice, plasma, 18 and 19 measured as metabolites
[6] = single IV bolus 5 mg/kg of compound 17, male CD-1 mice, plasma, 18 and 19 measured as metabolites

Structure (SMILES): Cn1cnc([N+](=O)[O-])c1Sc1ccccc1C(=O)NCCn1ccc(=O)c2cc3c(cc21)OCO3 [Compound 3, 2-((1-methyl-4-nitro-1H-imidazol-5-yl)thio)-N-(2-(8-oxo-[1,3]dioxolo[4,5-g]quinolin-5(8H)-yl)ethyl)benzamide]
- CC50 at 7 days [1]: > 100 µM
- pEC50 (HIV-192RW009): 4.75

Structure (SMILES): CC(=O)Sc1ccccc1C(=O)NCCC(N)=O [SAMT-247, 3-(S-acetylthiosalicyloyl)aminopropamide or N-[2-ccetylthiobenzoyl]-β-alaninamide]
- female macaques protected against vaginal acquisition of SIV [2]: 16 out of 20

Structure (SMILES): Cc1cccc(CNC(=O)c2cn(CCNC(=O)c3ccccc3Sc3c([N+](=O)[O-])ncn3C)c3cc4c(cc3c2=O)OC(F)(F)O4)n1 [Compound 18, 2,2-difluoro-5-(2-(2-((1-methyl-4-nitro-1H-imidazol-5-yl)thio)benzamido)ethyl)-N-((6-methylpyridin-2-yl)methyl)-8-oxo-5,8-dihydro-[1,3]dioxolo[4,5-g]quinoline-7-carboxamide]
- AUC0-inf ([3]; male, CD-1, mouse, in vivo, iv, single IV bolus 5 mg/kg of compound 17, male CD-1 mice, plasma, 18 and 19 measured as metabolites, read-out: AUC0-inf): 42.5 ng·h/mL
- Exposure (AUC0-t) lower than that of 17 ([3]; metabolite versus 17 after single IV bolus 5 mg/kg of 17, male mice): approximately 17 fold
- AUC(0-t) [3, 5]: 34.8 ng·h/mL
- Cmax [3, 5]: 75.6 ng/mL
- MRT inf [3, 5]: 3.73 h
- Tmax [3, 5]: 4.98 min
- half-life [3, 5]: 2.73 h
- tlast [3, 6]: 8.00 h
- AUC0-inf [3, 6]: 34.8 ng·h/mL

Structure (SMILES): Cc1cccc(CNC(=O)c2cn(CCNC(=O)c3ccccc3Sc3c([N+](=O)[O-])ncn3C)c3cc4c(cc3c2=O)OCO4)n1 [Compound 6, 5-(2-(2-((1-methyl-4-nitro-1H-imidazol-5-yl)thio)benzamido)ethyl)-N-((6-methylpyridin-2-yl)methyl)-8-oxo-5,8-dihydro-[1,3]dioxolo[4,5-g]quinoline-7-carboxamide]
- CC50 at 7 days [1]: > 100 µM
- pEC50 (HIV-192RW009): 4.51

Structure (SMILES): CCCC(=O)OCSc1ccccc1C(=O)NCCn1cc(C(=O)NCc2cccc(C)n2)c(=O)c2cc3c(cc21)OCO3 [Compound 4, ((2-((2-(7-(((6-methylpyridin-2-yl)methyl)carbamoyl)-8-oxo-[1,3]dioxolo[4,5-g]quinolin-5(8H)-yl)ethyl)carbamoyl)phenyl)thio)methyl butyrate]
- CC50 at 7 days [1]: > 100 µM
- pEC50 (HIV-192RW009): 5.96
- pEC50 (HIV-1RF): 6.32
- CC50 at 6 days [4]: > 100 µM
